Results reported in US20080045510A1, “Succinate salts of 6-methoxy-8-[4-(1-(5-fluoro)-quinolin-8-yl-piperidin-4-yl)-piperazin-1-yl]-quinoline and crystalline forms thereof” (Wyeth, priority 2006, published 2008).

Columns and labels:
[1] = solubility in aqueous media / water; type: physicochemical; conditions: even in the presence of surfactants
[2] = in vivo

SMILES: COc1cc(N2CCN(C3CCN(c4ccc(F)c5cccnc45)CC3)CC2)c2ncccc2c1 [free base, 6-methoxy-8-[4-(1-(5-fluoro)-quinolin-8-yl-piperidin-4-yl)-piperazin-1-yl]-quinoline]
- solubility [1]: ~0.4 µg/mL

SMILES: COc1cc(N2CCN(C3CCN(c4ccc(F)c5cccnc45)CC3)CC2)c2ncccc2c1.O=C(O)CCC(=O)O.O=C(O)CCC(=O)O.O=C(O)CCC(=O)O [Form B, 6-methoxy-8-[4-(1-(5-fluoro)-quinolin-8-yl-piperidin-4-yl)-piperazin-1-yl]-quinoline trisuccinate]
- conversion of crystalline form in THF/heptane slurry (slurried for two hours in a mixture of THF and heptane in an ice/water bath): convert to Form A

SMILES: COc1cc(N2CCN(C3CCN(c4ccc(F)c5cccnc45)CC3)CC2)c2ncccc2c1.O=C(O)CCC(=O)O.O=C(O)CCC(=O)O.O=C(O)CCC(=O)O [Form A, 6-methoxy-8-[4-(1-(5-fluoro)-quinolin-8-yl-piperidin-4-yl)-piperazin-1-yl]-quinoline trisuccinate]
- hygroscopicity (believed): substantially non-hygroscopic
- conversion of crystalline form in water (upon dispersion in water for a few minutes in ambient conditions): convert to Form D

SMILES: COc1cc(N2CCN(C3CCN(c4ccc(F)c5cccnc45)CC3)CC2)c2ncccc2c1.O=C(O)CCC(=O)O.O=C(O)CCC(=O)O.O=C(O)CCC(=O)O [trisuccinate salt, 6-methoxy-8-[4-(1-(5-fluoro)-quinolin-8-yl-piperidin-4-yl)-piperazin-1-yl]-quinoline trisuccinate]
- bioavailability [2]: improved bioavailability over the free base
